Test results reported in patent US6635650B2, “Substituted dimeric compounds” (Les Laboratoires Servier, priority 1999, dated 2003).

Question: For `CC(=O)NCCc1cccc2ccc(OCCCCCCOc3ccc4cccc(CCNC(C)=O)c4c3)cc12` [Example 17, N-[2-(7-{[6-({8-[2-(Acetylamino)ethyl]-2-naphthyl}oxy)hexyl]oxy}-1-naphthyl)ethyl]acetamide], which melting point is on record?
Answer: The melting point was 142 to 144 °C.
